The results in this text go back to ChEMBL document CHEMBL3390846, “Synthesis and biological activity of new pyridone diaryl ether non-nucleoside inhibitors of HIV-1 reverse transcriptase” (Medchemcomm, 2010).

Experiment [1] deals with Human immunodeficiency virus type 1 reverse transcriptase (Human immunodeficiency virus 1, UniProt Q72547, K103N). Briefly: Inhibition of polymerase activity of NNRTI-resistant HIV-1 LAI reverse transcriptase K103N mutant.
Experiment [2] deals with Human immunodeficiency virus type 1 reverse transcriptase (Human immunodeficiency virus 1, UniProt Q72547, Y181C). Briefly: Inhibition of polymerase activity of NNRTI-resistant HIV-1 LAI reverse transcriptase Y181C mutant.
In experiment [3] the target is Human immunodeficiency virus type 1 reverse transcriptase (Human immunodeficiency virus 1, UniProt Q72547). Briefly: Inhibition of polymerase activity of wild type HIV-1 LAI reverse transcriptase.
Experiment [4] concerns Human immunodeficiency virus 1. Briefly: Antiviral activity against wild type HIV-1 LAI infected in human MT4 cells assessed as protection against virus-induced cell death after 5 days by MTT assay. Type of experiment: functional, organism-based. Conditions: Human immunodeficiency virus 1, LAI, MT4, 120 h.
In experiment [5] the test system is Human immunodeficiency virus 1. Briefly: Antiviral activity against NNRTI-resistant HIV-1 LAI harboring reverse transcriptase Y181C mutant infected in human MT4 cells assessed as inhibition of viral replication after 5 days by MTT assay. Type of experiment: functional, organism-based. Conditions: Human immunodeficiency virus 1, LAI, MT4, 120 h.
Experiment [6] relates to Human immunodeficiency virus 1. Briefly: Antiviral activity against wild type HIV-1 LAI infected in human MT4 cells assessed as inhibition of viral replication after 5 days by MTT assay in presence of 40% human serum. It counts as functional, organism-based. As to conditions: Human immunodeficiency virus 1, LAI, MT4, 120 h.
For experiment [7], the system named is Human immunodeficiency virus 1. Briefly: Antiviral activity against wild type HIV-1 LAI infected in human MT4 cells assessed as inhibition of viral replication after 5 days by MTT assay. It counts as functional, organism-based. As to conditions: Human immunodeficiency virus 1, LAI, MT4, 120 h.
In experiment [8] the test system is Human immunodeficiency virus 1. Briefly: Potency index, ratio of efavirenz IC50 to compound IC50 for wild type HIV-1 LAI in presence of 40% human serum. Type of experiment: functional.
Experiment [9] has as its system Human immunodeficiency virus 1. Briefly: Antiviral activity against NNRTI-resistant HIV-1 LAI harboring reverse transcriptase K103N mutant infected in human MT4 cells assessed as inhibition of viral replication after 5 days by MTT assay. As to conditions: Human immunodeficiency virus 1, LAI, MT4, 120 h. It counts as functional, organism-based.

pIC50: −log10 of the molar value.

As to `N#Cc1cc(Cl)cc(Oc2c(Cc3ccccc3)c[nH]c(=O)c2Br)c1`, the pIC50 in experiment [1] was 7.15; in [2], 7.39; in [3], 7.47.
For `N#Cc1cc(Cl)cc(Oc2cc(CCc3cccnc3)[nH]c(=O)c2Cl)c1` the same measures were 7.80, 7.66 and 7.66.
With `N#Cc1cc(Cl)cc(Oc2cc(CCc3ccccc3)[nH]c(=O)c2Cl)c1`, the pIC50 in experiment [3] was 8.10.
`N#Cc1cc(Cl)cc(Oc2c(CCOc3cccnc3)c[nH]c(=O)c2Br)c1`: the negative-log IC50 (pIC50) is 7.80 in experiment [1], 8.10 in [2] and 7.96 in experiment [3].
As for `CN(C)c1c(Oc2cc(Cl)cc(C#N)c2)cc(CC(=O)N2CCc3ccccc3C2)[nH]c1=O`, the pIC50 in experiment [3] was 6.66; in experiment [4], 7.46.
For `N#Cc1cc(Cl)cc(Oc2c(F)c(CCc3ccccc3)[nH]c(=O)c2Cl)c1`, the pIC50 in experiment [3] was 8.15.
For `N#Cc1cc(Cl)cc(Oc2c(F)c(CC(=O)N3CCc4ccccc4C3)[nH]c(=O)c2Br)c1`, the values for the pIC50 in experiment [3] and in experiment [4] were 7.92 and 7.30, respectively.
Take `N#Cc1cc(Cl)cc(Oc2cc(CCc3ccccn3)[nH]c(=O)c2Cl)c1`: the pIC50 in [1] is 7.11; in [2], 7.48; in experiment [3] it was 7.68.
Take `N#Cc1cc(Cl)cc(Oc2c(F)c(CCc3ccncc3)[nH]c(=O)c2Br)c1`: the pIC50 was 7.96 in experiment [5]; 9.00 in experiment [1]; 7.64 in experiment [6]; 9.00 in experiment [2]; 8.70 in experiment [3]; 8.30 in experiment [7].
In the case of `Cc1[nH]c(=O)c(Cl)c(Oc2cc(Cl)cc(C#N)c2)c1CCCc1ccncc1`, the negative-log IC50 (pIC50) in [5] is 8.22; in [1] it was 8.70; in experiment [6], 8.30; in experiment [2], 8.52; in experiment [3], 8.40; in experiment [7], 8.70. In addition, in experiment [8], the “Ratio IC50” value was 3.
Regarding `N#Cc1cc(Cl)cc(Oc2c(F)c(CCc3cccc(Cl)c3)[nH]c(=O)c2Br)c1`, the values for the pIC50 in experiment [1], in experiment [2] and in [3] were 8.10, 8.10 and 7.77, respectively.
As for `Cc1[nH]c(=O)c(Cl)c(Oc2cc(Cl)cc(C#N)c2)c1CCOc1ccccc1`, the pIC50 was 7.96 in [5]; 7.62 in [9]; 8.30 in [1]; 7.89 in [6]; 8.22 in experiment [2]; 8.22 in [3]. The negative-log IC50 (pIC50) in experiment [7] is 8.40.
Turning to `O=C1Nc2ccc(Cl)cc2[C@@](C#CC2CC2)(C(F)(F)F)O1` [EFAVIRENZ], the results for the negative logarithm of the IC50 (pIC50) in [5] and in experiment [9] were 8.52 and 7.19, respectively.
For `N#Cc1cc(Cl)cc(Oc2cc(CCc3cccc(Cl)c3)[nH]c(=O)c2Cl)c1`, the pIC50 is 8.22 in experiment [1], 8.15 in experiment [2] and 7.92 in experiment [3].
Taken in the same sequence, the figures for `N#Cc1cc(Cl)cc(Oc2cc(CCc3nc4ccccc4o3)[nH]c(=O)c2Cl)c1` were 7.80, 8.40 and 8.22.
Consider `Cc1[nH]c(=O)c(Br)c(Oc2cc(Cl)cc(C#N)c2)c1Cc1ccccc1`, for which the negative-log IC50 (pIC50) in experiment [5] was 7.54; in experiment [9] it was 7.80; in [1], 8.15; in experiment [6] it was 7.49; in [2] it was 8.10; in experiment [3], 8.00. The negative logarithm of the IC50 (pIC50) in [7] is 8.22.
`N#Cc1cc(Cl)cc(Oc2cc(CC(=O)N3CCc4ccccc4C3)[nH]c(=O)c2Cl)c1`: the pIC50 in experiment [3] is 7.52; in [4], 7.46.
Turning to `N#Cc1cc(Cl)cc(Oc2cc(CCc3ccncc3)[nH]c(=O)c2Cl)c1`, the values for the pIC50 in experiment [1], in [2] and in experiment [3] were 7.85, 7.68 and 7.72, respectively.
`N#Cc1cc(Cl)cc(Oc2c(COCc3ccncc3)c[nH]c(=O)c2Br)c1`: the pIC50 in [5] was 7.72; in [9], 7.89; in [1] it was 7.89; in experiment [6] it was 8.00; in experiment [2], 7.96; in experiment [3], 7.68. Moreover, the pIC50 in [7] was 8.15.
Regarding `N#Cc1cc(Cl)cc(Oc2c(CCOc3ccncc3)c[nH]c(=O)c2Br)c1`, the results for the pIC50 in experiment [1], in experiment [2] and in experiment [3] were 7.85, 8.10 and 8.00, respectively.
